Earlier results in patent publication US20170333389A1, “Method of Ameliorating Clotting Pathologies and Related Materials and Methods” (The Ohio State University, priority 2012, published 2017).

Columns and labels:
[1] = test system: platelet aggregation; details: low-dose aspirin (81 mg) treated healthy volunteers
[2] = test system: recurrent stroke
[3] = patients who have had a TIA or stroke

## CC(=O)Oc1ccccc1C(=O)O [aspirin]
[1]
  platelet function recovery after withdrawal: 48 to 72 h
[2]; [3]
  decrease of relative risk of non-fatal ischemic stroke: 19%
  decrease of relative risk of recurrent stroke, myocardial infarction, and vascular death: 13%

## CC(C)c1c(C(=O)Nc2ccccc2)c(-c2ccccc2)c(-c2ccc(F)cc2)n1CC[C@@H](O)C[C@@H](O)CC(=O)O [atorvastatin]
[2]; patients with stroke, high dose, over 5 years
  decrease of risk of recurrent stroke: about 2%

## CC(=O)CC(c1ccccc1)c1c(O)c2ccccc2oc1=O (centres unmarked) [warfarin]
[2]; patients with stroke due to atrial fibrillation, dose-adjusted
  decrease of relative stroke risk: 62%
